Test results as given in ChEMBL document CHEMBL1268921, “New pyridazinone derivatives with vasorelaxant and platelet antiaggregatory activities” (Bioorg Med Chem Lett, 2010).
The source made the active and inactive calls. The calls are words filed in the database; no cut-off is given here.

What was measured:
Aorta = assay: Vasorelaxant activity against noradrenaline-induced contraction in intact rat aortic rings; assay type: functional, tissue-based
Platelet = assay: Antiplatelet activity against human platelet assessed as inhibition of thrombin-induced platelet aggregation at <100 uM; assay type: functional, cell-based
[1] = Antiplatelet activity against human platelet assessed as inhibition of collagen-induced platelet aggregation; assay type: functional, cell-based
[2] = biological target: Prostaglandin G/H synthase 1 (Homo sapiens) (UniProt P23219); assay: Inhibition of COX1
Prostaglandin G/H synthase 1 (Homo sapiens), sequence (P23219 whole entry): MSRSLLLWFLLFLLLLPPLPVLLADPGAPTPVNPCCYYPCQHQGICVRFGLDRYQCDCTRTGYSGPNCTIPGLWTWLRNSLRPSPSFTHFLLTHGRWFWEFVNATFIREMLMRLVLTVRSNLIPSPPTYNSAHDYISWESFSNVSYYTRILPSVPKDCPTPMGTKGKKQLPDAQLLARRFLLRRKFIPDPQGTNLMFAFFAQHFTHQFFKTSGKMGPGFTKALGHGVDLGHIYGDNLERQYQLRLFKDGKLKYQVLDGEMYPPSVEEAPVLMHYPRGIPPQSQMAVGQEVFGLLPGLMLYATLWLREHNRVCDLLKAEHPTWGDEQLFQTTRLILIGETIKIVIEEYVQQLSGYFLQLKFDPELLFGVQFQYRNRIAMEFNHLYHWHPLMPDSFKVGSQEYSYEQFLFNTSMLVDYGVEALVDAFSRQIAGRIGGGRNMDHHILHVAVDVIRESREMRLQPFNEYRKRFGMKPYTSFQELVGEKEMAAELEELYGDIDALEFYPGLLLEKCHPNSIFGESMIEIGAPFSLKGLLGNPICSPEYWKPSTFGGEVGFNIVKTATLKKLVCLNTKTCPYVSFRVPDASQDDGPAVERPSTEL

Row | SMILES | IC50 (Aorta) | Activity (Platelet) | IC50 [1] | inhibition [2]
1 | Cn1nc(CO[Si](c2ccccc2)(c2ccccc2)C(C)(C)C)ccc1=O | 58.4 µM | Active | 4.55 µM | –
2 | O=c1ccc(CCCO)n[nH]1 | > 100 µM | Active | > 100 µM | –
3 | Cn1nc(CCCOCc2ccccc2)ccc1=O | 76.4 µM | Active | 50.7 µM | –
4 | O=c1ccc(CCO)nn1Cc1ccccc1 | > 100 µM | Active | > 100 µM | –
5 | CC(C)(C)[Si](OCCc1ccc(=O)[nH]n1)(c1ccccc1)c1ccccc1 | 56.2 µM | Active | 3.87 µM | –
6 | CC(C)(C)[Si](OCc1ccc(=O)[nH]n1)(c1ccccc1)c1ccccc1 | 62.6 µM | Active | 1.8 µM | –
7 | O=c1ccc(CO)n[nH]1 | > 100 µM | Active | > 100 µM | –
8 | Cn1nc(CCO)ccc1=O | > 100 µM | Active | 60.4 µM | –
9 | O=c1ccc(CCCOCc2ccccc2)nn1Cc1ccccc1 | 32.5 µM | Active | 5.9 µM | –
10 | Cn1nc(CCCO)ccc1=O | > 100 µM | Active | > 100 µM | –
11 | CC(C)(C)[Si](OCCCc1ccc(=O)n(Cc2ccccc2)n1)(c1ccccc1)c1ccccc1 | 39.9 µM | Active | 3.9 µM | –
12 | O=c1ccc(CO)nn1Cc1ccccc1 | > 100 µM | Active | > 100 µM | –
13 | O=c1ccc(CCCO)nn1Cc1ccccc1 | > 100 µM | Active | 4.7 µM | –
14 | CC(C)(C)[Si](OCc1ccc(=O)n(Cc2ccccc2)n1)(c1ccccc1)c1ccccc1 | > 100 µM | Active | 4.6 µM | –
15 | Cc1[nH]c(=O)c(C#N)cc1-c1ccncc1 [MILRINONE] | 0.122 µM | – | 38.5 µM | –
16 | O=c1ccc(CCOCc2ccccc2)nn1Cc1ccccc1 | 32.3 µM | Active | 4.11 µM | –
17 | Cn1nc(CCCO[Si](c2ccccc2)(c2ccccc2)C(C)(C)C)ccc1=O | > 100 µM | Active | 2.34 µM | –
18 | Cn1nc(CCOCc2ccccc2)ccc1=O | > 100 µM | Active | > 100 µM | –
19 | Cn1nc(CCO[Si](c2ccccc2)(c2ccccc2)C(C)(C)C)ccc1=O | 47 µM | Active | 3.17 µM | Active
20 | Cn1nc(CO)ccc1=O | > 100 µM | Active | 69.6 µM | –
21 | CC(C)(C)[Si](OCCc1ccc(=O)n(Cc2ccccc2)n1)(c1ccccc1)c1ccccc1 | > 100 µM | Active | 4.8 µM | –
22 | O=c1ccc(CCO)n[nH]1 | > 100 µM | Active | 64.3 µM | –
23 | Cn1nc(COCc2ccccc2)ccc1=O | > 100 µM | Active | > 100 µM | –
24 | O=c1ccc(COCc2ccccc2)nn1Cc1ccccc1 | 35.3 µM | Active | 8 µM | –
25 | CC(C)(C)[Si](OCCCc1ccc(=O)[nH]n1)(c1ccccc1)c1ccccc1 | 78.2 µM | Active | 2.13 µM | –
